Measured values from the NIST ThermoML archive (doi:10.1021/je301167q).

Tests used:
[1] = xn = mol fraction of the nth substance listed; settings: 101 kPa, Liquid; for speed of sound: Sing-around technique in a fixed-path interferometer
[2] = 101 kPa, Liquid; for speed of sound: Sing-around technique in a fixed-path interferometer

CCCCCCn1cc[n+](C)c1.F[B-](F)(F)F [1-hexyl-3-methylimidazolium tetrafluoroborate] + CCCCN
[1], x1 = 1
Settings	mass density [kg/m3]	speed of sound [m/s]
298.15 K	1145.11	1496.7
308.15 K	1137.71	1472
318.15 K	1130.49	1447.7

CCCCCCCC[n+]1ccn(C)c1.F[B-](F)(F)F [1-methyl-3-octylimidazolium tetrafluoroborate]
[2]
Settings	mass density [kg/m3]	speed of sound [m/s]
298.15 K	1097.61	1481.1
308.15 K	1090.9	1453.9
318.15 K	1084.17	1428.2

CCCCCCCCN [1-octanamine]
[2]
Settings	mass density [kg/m3]	speed of sound [m/s]
298.15 K	777.45	1343.2
308.15 K	769.46	1303.1
318.15 K	761.47	1263.5

CCCCCCn1cc[n+](C)c1.F[B-](F)(F)F [1-hexyl-3-methylimidazolium tetrafluoroborate] + CCCCCCCCN
[1], x1 = 1
Settings	mass density [kg/m3]	speed of sound [m/s]
298.15 K	1145.11	1496.7
308.15 K	1137.71	1472
318.15 K	1130.49	1447.7

CCCCCCCCN [1-octanamine] + CCCCCCCC[n+]1ccn(C)c1.F[B-](F)(F)F
[1]
Settings	mass density, 298.15 K [kg/m3]	mass density, 308.15 K [kg/m3]	mass density, 318.15 K [kg/m3]	speed of sound, 298.15 K [m/s]	speed of sound, 308.15 K [m/s]	speed of sound, 318.15 K [m/s]
x2 = 0	777.45	769.46	761.47	1343.2	1303.1	1263.5
x2 = 0.1563	851.54	843.71	835.78	1353.1	1314.6	1276.9
x2 = 0.3025	910.65	902.92	895.08	1370.2	1334.4	1299
x2 = 0.4175	951.05	943.4	935.73	1387.6	1353.8	1320.5
x2 = 0.5225	983.58	976.2	968.62	1404.3	1372.4	1340.9
x2 = 0.6252	1011.86	1004.63	997.3	1420.9	1390.6	1360.7
x2 = 0.7202	1035.54	1028.44	1021.3	1436.5	1407.1	1378.4
x2 = 0.794	1052.58	1045.53	1038.51	1449	1419.9	1392.2
x2 = 0.7994	1053.88	1046.83	1039.75	1449.2	1421.1	1393.2
x2 = 0.8691	1069.21	1062.23	1055.21	1461.3	1432.7	1405.8
x2 = 0.9259	1081.47	1074.59	1067.76	1470.5	1442.2	1416.1

CCCCCCn1cc[n+](C)c1.F[B-](F)(F)F [1-hexyl-3-methylimidazolium tetrafluoroborate]
[2]
Settings	mass density [kg/m3]	speed of sound [m/s]
298.15 K	1145.11	1496.7
308.15 K	1137.71	1472
318.15 K	1130.49	1447.7

CCCCCCCC[n+]1ccn(C)c1.F[B-](F)(F)F [1-methyl-3-octylimidazolium tetrafluoroborate] + CCCCN
[1], x1 = 1
Settings	mass density [kg/m3]	speed of sound [m/s]
298.15 K	1097.61	1481.1
308.15 K	1090.9	1453.9
318.15 K	1084.17	1428.2

CCCCN [1-butanamine]
[2]
Settings	mass density [kg/m3]	speed of sound [m/s]
298.15 K	733.33	1246.5
308.15 K	723.67	1201.3
318.15 K	714	1156.2

CCCCCCCC[n+]1ccn(C)c1.F[B-](F)(F)F [1-methyl-3-octylimidazolium tetrafluoroborate] + CCCCCCCCN
[1], x1 = 1
Settings	mass density [kg/m3]	speed of sound [m/s]
298.15 K	1097.61	1481.1
308.15 K	1090.9	1453.9
318.15 K	1084.17	1428.2

CCCCCCCCN [1-octanamine] + CCCCCCn1cc[n+](C)c1.F[B-](F)(F)F
[1]
Settings	mass density, 298.15 K [kg/m3]	mass density, 308.15 K [kg/m3]	mass density, 318.15 K [kg/m3]	speed of sound, 298.15 K [m/s]	speed of sound, 308.15 K [m/s]	speed of sound, 318.15 K [m/s]
x2 = 0	777.45	769.46	761.47	1343.2	1303.1	1263.5
x2 = 0.2986	914.74	906.98	899.32	1365.4	1331.6	1306.8
x2 = 0.398	954.27	946.51	938.79	1379.9	1345.6	1317.5
x2 = 0.4981	991.03	983.38	975.59	1396.2	1364.9	1333.8
x2 = 0.5999	1025.72	1017.96	1010.27	1416.6	1386.2	1356.4
x2 = 0.6994	1057.35	1049.51	1041.89	1437.5	1409.6	1381.5
x2 = 0.7998	1087.45	1079.76	1072.25	1460.3	1433.5	1408.2
x2 = 0.8945	1114.95	1107.34	1099.87	1479.6	1455.6	1431.7

CCCCN [1-butanamine] + CCCCCCn1cc[n+](C)c1.F[B-](F)(F)F
[1]
Settings	mass density, 298.15 K [kg/m3]	mass density, 308.15 K [kg/m3]	mass density, 318.15 K [kg/m3]	speed of sound, 298.15 K [m/s]	speed of sound, 308.15 K [m/s]	speed of sound, 318.15 K [m/s]
x2 = 0	733.33	723.67	714	1246.5	1201.3	1156.2
x2 = 0.0994	820.09	810.83	803.47	1272.3	1231.1	1188.8
x2 = 0.2012	890.48	881.55	874.79	1305.8	1267.4	1229
x2 = 0.302	946.28	937.89	930.48	1341	1305.5	1270.1
x2 = 0.4065	993.19	985.04	977.3	1376.3	1343.8	1312
x2 = 0.4959	1026.43	1018.45	1010.64	1404.6	1374.3	1344.3
x2 = 0.5886	1055.62	1047.87	1040.15	1428.9	1401.1	1373.6
x2 = 0.7069	1086.83	1079.26	1071.7	1456.2	1429.9	1403.8
x2 = 0.8126	1110.28	1102.83	1095.43	1474.1	1450.2	1423.8
x2 = 0.8796	1123.46	1116.13	1108.89	1483.2	1459.8	1433.9

CCCCN [1-butanamine] + CCCCCCCC[n+]1ccn(C)c1.F[B-](F)(F)F
[1]
Settings	mass density, 298.15 K [kg/m3]	mass density, 308.15 K [kg/m3]	mass density, 318.15 K [kg/m3]	speed of sound, 298.15 K [m/s]	speed of sound, 308.15 K [m/s]	speed of sound, 318.15 K [m/s]
x2 = 0	733.33	723.67	714	1246.5	1201.3	1156.2
x2 = 0.0963	817.1	807.93	800.03	1276.5	1235	1193.1
x2 = 0.1917	880.04	871.4	863.91	1309	1270.6	1232
x2 = 0.2948	932.2	924.07	916.37	1344.1	1309	1274
x2 = 0.3866	968.66	960.74	953.13	1371.6	1338.8	1306.4
x2 = 0.49	1001.63	993.95	986.41	1398.9	1368.2	1337.9
x2 = 0.5895	1027.36	1019.96	1012.6	1421.3	1391.9	1363.3
x2 = 0.7124	1053.43	1046.28	1039.31	1442.7	1414.8	1387.4
x2 = 0.7925	1067.91	1060.88	1053.97	1454.2	1427.1	1400
x2 = 0.8843	1082.31	1075.48	1068.67	1465.8	1438.8	1412.3
